Experimental findings from patent US8921410B2, “Nicotinic acetylcholine receptor sub-type selective amides of diazabicycloalkanes” (Targacept, Inc., priority 2006, dated 2014) are described below.

The target in assay [1] is human α4β2 nAChR subtype (Homo sapiens (Human), UniProt P17787+P43681). Kind of assay: Radioligand ([3H]nicotine) binding at α4β2 nAChR, SH-EP1/human α4β2 clonal cell membranes. The settings on record: read-out: Human α4β2 Ki. The procedure:
Preparation of Membranes from SH-EP1/Human α4β2 Clonal Cells:
Cell pellets from 40 150 mm culture dishes were pooled, and homogenized by Polytron (Kinematica GmbH, Switzerland) in 20 milliliters of ice-cold preparative buffer. The homogenate was centrifuged at 48,000 g for 20 minutes at 4° C. The resulting pellet was re-suspended in 20 mL of ice-cold preparative buffer and stored at −20° C.
(§1) On the day of the assay, the frozen membranes were thawed and spun at 48,000×g for 20 min. The supernatant was decanted and discarded. The pellet was resuspended in Dulbecco's phosphate buffered saline (PBS, Life Technologies) pH 7.4 and homogenized with the Polytron for 6 seconds. Protein concentrations were determined using a Pierce BCA Protein Assay Kit, with bovine serum albumin as the standard (Pierce Chemical Company, Rockford, Ill.).
(§2) Tissue was rinsed 3 times in PBS, pH 7.4. Scintillation fluid was added to filters containing the washed tissue and allowed to equilibrate.
(§3) Data were expressed as disintegrations per minute (DPMs). Within each assay, each point had 2-3 replicates. The replicates for each point were averaged and plotted against the log of the drug concentration.

For assay [2], the target named is rat α4β2 nAChR subtype (Rattus norvegicus (Rat), UniProt P09483+P12390). Kind of assay: Radioligand ([3H]nicotine) binding at α4β2 nAChR, rat cortex membranes. As to the method:
Preparation of Membranes from Rat Cortex:
(§4) Rats (female, Sprague-Dawley), weighing 150-250 g, were maintained on a 12 h light/dark cycle and were allowed free access to water and food supplied by PMI Nutrition International, Inc. Animals were anesthetized with 70% CO2, and then decapitated. Brains were removed and placed on an ice-cold platform. […] The homogenate was centrifuged at 18,000×g for 20 min at 4° C. and the resulting pellet was re-suspended in 20 volumes of ice-cold water. After 60 min incubation on ice, a new pellet was collected by centrifugation at 18,000×g for 20 min at 4° C. The final pellet was re-suspended in 10 volumes of buffer and stored at −20° C.
as §1, §2, §3

Assay [3] addresses α7 nAChR subtype (Rattus norvegicus (Rat), UniProt Q05941). Kind of assay: Radioligand ([3H]MLA) binding at α7 nAChR, rat hippocampus membranes. As to the method:
as §4, with “CO2,” for “CO2, and”, “in 10” for “in 20”
The binding of [^3H]MLA was measured using a modification of the methods of Davies et al., Neuropharmacol. […] [^3H]MLA (Specific Activity=25-35 Ci/mmol) was obtained from Tocris. The binding of [^3H]MLA was determined using a 2 h incubation at 21° C. Incubations were conducted in 48-well micro-titre plates and contained about 200 μg of protein per well in a final incubation volume of 300 μL. The incubation buffer was PBS and the final concentration of [^3H]MLA was 5 nM. The binding reaction was terminated by filtration of the protein containing bound ligand onto glass fiber filters (GF/B, Brandel) using a Brandel Tissue Harvester at room temperature. […] Each filter was washed with PBS (3×1 mL) at room temperature. Non-specific binding was determined by inclusion of 50 μM non-radioactive MLA in selected wells.
The inhibition of [^3H]MLA binding by test compounds was determined by including seven different concentrations of the test compound in selected wells. Each concentration was replicated in triplicate. IC50 values were estimated as the concentration of compound that inhibited 50 percent of specific [^3H]MLA binding.

The mark [4] stands for this setting: [3H]nicotine 5 nM, SH-EP1/human α4β2 membranes.
[5] abbreviates: [3H]nicotine 5 nM, rat cortex membranes.
Where [6] appears, read: [3H]MLA 5 nM, rat hippocampus membranes.
Where [7] appears, read: did not bind sufficiently in HTS at α7 to warrant Ki determination.

Like-named read-outs stand apart in the source and are kept apart here.

α7 nAChR subtype, sequence (Q05941 23-502): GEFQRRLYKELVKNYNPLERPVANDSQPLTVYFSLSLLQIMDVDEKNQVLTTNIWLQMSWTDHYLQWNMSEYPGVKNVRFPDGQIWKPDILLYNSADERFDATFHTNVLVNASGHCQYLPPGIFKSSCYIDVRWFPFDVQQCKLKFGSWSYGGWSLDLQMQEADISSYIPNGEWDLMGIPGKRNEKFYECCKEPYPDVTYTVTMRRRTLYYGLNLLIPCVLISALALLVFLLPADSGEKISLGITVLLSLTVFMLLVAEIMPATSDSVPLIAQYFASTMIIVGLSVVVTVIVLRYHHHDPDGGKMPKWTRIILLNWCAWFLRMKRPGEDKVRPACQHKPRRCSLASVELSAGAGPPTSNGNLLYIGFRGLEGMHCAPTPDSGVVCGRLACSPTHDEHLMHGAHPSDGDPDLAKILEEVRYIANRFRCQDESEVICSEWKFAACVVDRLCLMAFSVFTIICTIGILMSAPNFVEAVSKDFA
rat α4β2 nAChR subtype, sequence (P09483 31-630): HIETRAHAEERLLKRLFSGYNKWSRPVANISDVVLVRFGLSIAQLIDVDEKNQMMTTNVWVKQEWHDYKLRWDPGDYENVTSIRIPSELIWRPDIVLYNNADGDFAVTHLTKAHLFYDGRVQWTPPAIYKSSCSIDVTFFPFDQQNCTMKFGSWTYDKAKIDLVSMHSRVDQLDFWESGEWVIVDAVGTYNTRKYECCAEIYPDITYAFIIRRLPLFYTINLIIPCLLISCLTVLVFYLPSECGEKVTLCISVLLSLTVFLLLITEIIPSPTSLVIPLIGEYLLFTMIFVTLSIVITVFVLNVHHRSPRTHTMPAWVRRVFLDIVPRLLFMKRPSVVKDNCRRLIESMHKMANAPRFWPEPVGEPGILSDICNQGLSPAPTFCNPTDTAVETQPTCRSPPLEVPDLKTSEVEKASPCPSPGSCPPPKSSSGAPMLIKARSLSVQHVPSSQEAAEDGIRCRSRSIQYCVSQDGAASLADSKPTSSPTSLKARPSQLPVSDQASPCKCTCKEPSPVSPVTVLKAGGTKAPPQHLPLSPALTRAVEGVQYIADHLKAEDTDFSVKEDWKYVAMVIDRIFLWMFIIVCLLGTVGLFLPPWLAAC
rat α4β2 nAChR subtype, sequence (P12390 25-500): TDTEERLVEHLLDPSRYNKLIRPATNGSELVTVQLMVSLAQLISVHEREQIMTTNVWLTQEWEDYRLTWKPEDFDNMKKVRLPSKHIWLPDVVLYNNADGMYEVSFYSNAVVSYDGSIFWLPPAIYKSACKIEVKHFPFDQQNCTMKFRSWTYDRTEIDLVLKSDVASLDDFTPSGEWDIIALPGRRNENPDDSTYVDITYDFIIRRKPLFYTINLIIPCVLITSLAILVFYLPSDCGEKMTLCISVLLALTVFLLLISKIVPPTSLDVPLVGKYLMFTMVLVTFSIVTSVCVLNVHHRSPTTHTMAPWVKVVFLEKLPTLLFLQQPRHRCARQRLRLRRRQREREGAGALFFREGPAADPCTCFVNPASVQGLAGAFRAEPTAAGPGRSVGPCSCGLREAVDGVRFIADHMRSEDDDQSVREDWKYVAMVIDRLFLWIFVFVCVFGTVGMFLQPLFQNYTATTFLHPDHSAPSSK
human α4β2 nAChR subtype, sequence (P43681 29-627): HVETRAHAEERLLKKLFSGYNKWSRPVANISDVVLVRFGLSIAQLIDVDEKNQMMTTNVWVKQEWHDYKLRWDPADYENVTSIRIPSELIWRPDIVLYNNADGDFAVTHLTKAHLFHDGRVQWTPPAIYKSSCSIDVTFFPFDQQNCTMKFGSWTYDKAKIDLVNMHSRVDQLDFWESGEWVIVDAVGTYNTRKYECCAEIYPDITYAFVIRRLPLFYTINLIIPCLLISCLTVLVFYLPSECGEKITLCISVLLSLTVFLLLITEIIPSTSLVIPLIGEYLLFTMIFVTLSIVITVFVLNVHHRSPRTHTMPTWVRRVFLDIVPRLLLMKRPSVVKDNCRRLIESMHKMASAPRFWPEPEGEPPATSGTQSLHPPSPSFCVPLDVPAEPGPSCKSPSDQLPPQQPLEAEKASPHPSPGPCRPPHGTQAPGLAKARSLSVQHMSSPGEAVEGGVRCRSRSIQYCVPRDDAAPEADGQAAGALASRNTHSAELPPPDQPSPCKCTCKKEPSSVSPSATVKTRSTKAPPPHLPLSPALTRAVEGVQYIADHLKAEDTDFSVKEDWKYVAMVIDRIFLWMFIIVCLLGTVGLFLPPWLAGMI
human α4β2 nAChR subtype, sequence (P17787 26-502): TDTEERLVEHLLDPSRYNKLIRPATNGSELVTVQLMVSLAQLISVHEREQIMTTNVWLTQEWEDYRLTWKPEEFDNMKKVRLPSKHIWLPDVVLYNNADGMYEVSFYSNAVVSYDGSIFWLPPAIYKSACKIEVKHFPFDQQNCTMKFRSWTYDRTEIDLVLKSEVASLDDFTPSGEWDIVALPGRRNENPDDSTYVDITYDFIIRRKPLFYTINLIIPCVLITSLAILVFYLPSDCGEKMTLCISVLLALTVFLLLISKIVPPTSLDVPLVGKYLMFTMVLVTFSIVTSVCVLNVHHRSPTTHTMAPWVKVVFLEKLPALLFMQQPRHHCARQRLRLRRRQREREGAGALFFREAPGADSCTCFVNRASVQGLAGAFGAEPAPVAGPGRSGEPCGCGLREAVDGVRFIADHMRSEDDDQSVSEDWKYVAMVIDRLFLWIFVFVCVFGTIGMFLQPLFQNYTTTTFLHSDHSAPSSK

The Ki is a measure of affinity in units of concentration, obtained from inhibition or displacement. In the case of `O=C(c1ccc(Br)o1)N1CC2CNCC2C1` (centres unmarked), the Ki stood at 73 nM in assay [1] (setting [4]), 54 nM in assay [2] (setting [5]) and 12000 nM in assay [3].
As to `O=C(c1ccoc1)N1CC2CNCC2C1` (centres unmarked), the Ki is 220 nM in assay [1] (setting [4]), 53 nM in assay [2] and 3100 nM in assay [3] (setting [6]).
In the case of `O=C(c1ccc([N+](=O)[O-])o1)N1CC2CNCC2C1` (centres unmarked), the values for the Ki in assay [1] (setting [4]), in assay [2] (setting [5]) and in assay [3] (setting [6]) were 31 nM, 35 nM and 2900 nM, respectively.
For the compound `COc1cc(C(=O)N2CC3CNCC3C2)on1` (centres unmarked), the Ki was determined as 19 nM in assay [1] (setting [4]), 19 nM in assay [2] (setting [5]) and 3500 nM in assay [3] (setting [6]).
For the compound `O=C(c1occc1Br)N1CC2CNCC2C1` (centres unmarked), the Ki in assay [1] (setting [4]) was found to be 1.5 nM; in assay [2], 1.5 nM; in assay [3] (setting [6]) it was 12000 nM.
`Cc1ccoc1C(=O)N1CC2CNCC2C1` (centres unmarked): the Ki in assay [1] (setting [4]) was determined as 54 nM; in assay [2] (setting [5]), 44 nM; in assay [3] (setting [6]), 25000 nM.
`O=C(c1ccc(C#Cc2ccccc2)o1)N1CC2CNCC2C1` (centres unmarked): the Ki in assay [1] (setting [4]) was 43 nM; in assay [2] (setting [5]), 230 nM; in assay [3] (setting [6]), 3200 nM.
As for `Cc1ccc(C(=O)N2CC3CNCC3C2)o1` (centres unmarked), the results for the Ki in assay [1] (setting [4]), in assay [2] and in assay [3] were 28 nM, 130 nM and 23000 nM, respectively.
Take `O=C(c1cc(Br)no1)N1CC2CNCC2C1` (centres unmarked): the Ki is 44 nM in assay [1] (setting [4]) and 17 nM in assay [2] (setting [5]). In addition, the “α7 high through-put screening outcome (Ki not determined)” value in assay [3] (setting [7]) is reported as “ND; failed HTS”.
Consider `Cc1oc(C(=O)N2CC3CNCC3C2)cc1Br` (centres unmarked), for which the Ki in assay [1] (setting [4]) was found to be 22 nM; in assay [2] it was 20 nM. The “α7 high through-put screening outcome (Ki not determined)” value in assay [3] (setting [7]) is “ND; failed HTS”.
`O=C(c1cc(Br)c(Br)o1)N1CC2CNCC2C1` (centres unmarked): the “α7 high through-put screening outcome (Ki not determined)” value in assay [3] (setting [7]) was “ND; failed HTS”.
With `N#Cc1ccoc1C(=O)N1CC2CNCC2C1` (centres unmarked), the Ki in assay [1] turned out to be 14 nM; in assay [2], 25 nM. The “α7 high through-put screening outcome (Ki not determined)” value in assay [3] is on record as “ND; failed HTS”.
In the case of `Cc1cc(F)c(C(=O)N2CC3CNCC3C2)o1` (centres unmarked), the Ki in assay [1] (setting [4]) came to 14 nM; in assay [2], 65 nM. The “α7 high through-put screening outcome (Ki not determined)” value in assay [3] (setting [7]) was “ND; failed HTS”.
Turning to `O=C(c1ccc(Br)o1)N1CC2CNCC(C2)C1`, the inhibition constant Ki in assay [1] (setting [4]) is 51 nM; in assay [2] it was 41 nM. Further, in assay [3] (setting [7]), the “α7 high through-put screening outcome (Ki not determined)” value is “ND; failed HTS”.
For the compound `COc1cc(C(=O)N2CC3CNCC(C3)C2)on1`, the Ki in assay [1] (setting [4]) was 180 nM; in assay [2], 33 nM. In assay [3] (setting [7]), the “α7 high through-put screening outcome (Ki not determined)” value is given as “ND; failed HTS”.
For the compound `Cc1cc(C(=O)N2CC3CNCC(C3)C2)no1`, the Ki in assay [1] is 96 nM; in assay [2], 68 nM. Further, in assay [3] (setting [7]), the “α7 high through-put screening outcome (Ki not determined)” value is on record as “ND; failed HTS”.
On to `Cc1cc(C(=O)N2CC3CNCC(C3)C2)on1`, for which the Ki in assay [1] (setting [4]) was 47 nM; in assay [2] it was 29 nM. The “α7 high through-put screening outcome (Ki not determined)” value in assay [3] (setting [7]) is “ND; failed HTS”.
On to `O=C(c1cc(C2CC2)on1)N1CC2CNCC(C2)C1`, for which the Ki in assay [1] (setting [4]) turned out to be 83 nM; in assay [2] it was 25 nM. Besides, the “α7 high through-put screening outcome (Ki not determined)” value in assay [3] (setting [7]) is on record as “ND; failed HTS”.
The matching figures for `O=C(c1occc1Cl)N1CC2CNCC(C2)C1`: 29 nM, 96 nM and “ND; failed HTS”.
Regarding `O=C(c1cc(Br)c(Br)o1)N1CC2CNCC(C2)C1`, in assay [3] (setting [7]), the “α7 high through-put screening outcome (Ki not determined)” value is on record as “ND; failed HTS”.
Take `O=C(c1cc(Cl)co1)N1CC2CNCC(C2)C1`: the Ki in assay [1] (setting [4]) worked out at 5.2 nM; in assay [2] it was 13 nM. In addition, the “α7 high through-put screening outcome (Ki not determined)” value in assay [3] (setting [7]) is recorded as “ND; failed HTS”.
As to `Cc1oc(C(=O)N2CC3CNCC(C3)C2)cc1Br`, the Ki in assay [1] (setting [4]) was 5.2 nM; in assay [2], 7.5 nM. In addition, the “α7 high through-put screening outcome (Ki not determined)” value in assay [3] (setting [7]) is listed as “ND; failed HTS”.
As to `N#Cc1ccc(C(=O)N2CC3CNCC(C3)C2)o1`, the Ki was determined as 8.7 nM in assay [1] and 35 nM in assay [2]. Further, the “α7 high through-put screening outcome (Ki not determined)” value in assay [3] (setting [7]) is “ND; failed HTS”.
